The experiment addresses T1, SIRT1 (Homo sapiens, UniProt Q96EB6).
T1 sequence (Q96EB6 1-747): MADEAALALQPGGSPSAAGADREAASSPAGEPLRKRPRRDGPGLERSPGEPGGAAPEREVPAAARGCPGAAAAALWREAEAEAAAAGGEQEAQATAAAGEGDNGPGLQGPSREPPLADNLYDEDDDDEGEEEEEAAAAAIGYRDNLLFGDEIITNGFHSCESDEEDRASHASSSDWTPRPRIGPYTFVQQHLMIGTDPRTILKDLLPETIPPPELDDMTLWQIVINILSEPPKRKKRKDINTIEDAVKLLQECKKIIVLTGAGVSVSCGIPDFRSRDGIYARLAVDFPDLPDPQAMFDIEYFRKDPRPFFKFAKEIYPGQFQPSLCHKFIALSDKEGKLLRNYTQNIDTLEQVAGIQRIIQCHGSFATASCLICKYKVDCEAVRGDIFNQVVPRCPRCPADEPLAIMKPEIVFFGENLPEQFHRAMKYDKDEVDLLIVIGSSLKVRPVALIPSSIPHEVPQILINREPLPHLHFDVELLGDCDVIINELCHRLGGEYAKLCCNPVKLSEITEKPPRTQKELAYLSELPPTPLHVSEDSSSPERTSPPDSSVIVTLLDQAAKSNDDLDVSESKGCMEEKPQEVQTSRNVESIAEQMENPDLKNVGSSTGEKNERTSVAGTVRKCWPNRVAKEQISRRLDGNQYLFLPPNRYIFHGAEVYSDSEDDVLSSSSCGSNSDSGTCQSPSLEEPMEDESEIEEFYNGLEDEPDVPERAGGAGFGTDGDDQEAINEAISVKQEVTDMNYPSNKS
Nature of the experiment: Mass spectrometry based assay to identify modulators of SIRT1 activity (deacetylation of p53-based acetylated peptide substrate). The format is biochemical. The conditions noted are these: SIRT1 activation; for Emax: 25 min, read-out: % FOLD ACT. (percent maximum fold activation). The text has this: A mass spectrometry based assay was used to identify modulators of SIRT1 activity. The mass spectrometry based assay utilizes a peptide having 20 amino acid residues as follows: Ac-EE-K(biotin)-GQSTSSHSK(Ac)NleSTEG-K(5TMR)-EE-NH2 (SEQ ID NO: 1) wherein K(Ac) is an acetylated lysine residue and Nle is a norleucine. The peptide is labeled with the fluorophore 5TMR (excitation 540 nm/emission 580 nm) at the C-terminus. The sequence of the peptide substrate is based on p53 with several modifications. In addition, the methionine residue naturally present in the sequence was replaced with the norleucine because the methionine may be susceptible to oxidation during synthesis and purification.
The mass spectrometry assay is conducted as follows: […] peptide substrate and 120 μM βNAD^+ is incubated with 10 nM SIRT1 for 25 minutes at 25° C. in a reaction buffer (50 mM Tris-acetate pH 8, 137 mM NaCl, 2.7 mM KCl, 1 mM MgCl2, 5 mM DTT, 0.05% BSA). Test compounds may be added to the reaction as described above. The SirT1 gene is cloned into a T7-promoter containing vector and transformed into BL21(DE3). After the 25 minute incubation with SIRT1, 10 μL of 10% formic acid is added to stop the reaction. Reactions are sealed and frozen for later mass spec analysis. Determination of the mass of the substrate peptide allows for precise determination of the degree of acetylation (i.e. starting material) as compared to deacetylated peptide (product).
A control for inhibition of sirtuin activity is conducted by adding 1 μL of 500 mM nicotinamide as a negative control at the start of the reaction (e.g., permits determination of maximum sirtuin inhibition). A control for activation of sirtuin activity is conducted using 10 nM of sirtuin protein, with 1 μL of DMSO in place of compound, to determine the amount of deacetylation of the substrate at a given timepoint within the linear range of the assay. This timepoint is the same as that used for test compounds and, within the linear range, the endpoint represents a change in velocity.
For the above assay, SIRT1 protein was expressed and purified as follows. The SirT1 gene was cloned into a T7-promoter containing vector and transformed into BL21(DE3). The protein was expressed by induction with 1 mM IPTG as an N-terminal His-tag fusion protein at 18° C. overnight and harvested at 30,000×g. Cells were lysed with lysozyme in lysis buffer (50 mM Tris-HCl, 2 mM Tris[2-carboxyethyl]phosphine (TCEP), 10 μM ZnCl2, 200 mM NaCl) and further treated with sonication for 10 min for complete lysis. The protein was purified over a Ni-NTA column (Amersham) and fractions containing pure protein were pooled, concentrated and run over a sizing column (Sephadex S200 26/60 global). The peak containing soluble protein was collected and run on an Ion-exchange column (MonoQ). Gradient elution (200 mM-500 mM NaCl) yielded pure protein. This protein was concentrated and dialyzed against dialysis buffer (20 mM Tris-HCl, 2 mM TCEP) overnight. The protein was aliquoted and frozen at −80° C. until further use.

Turning to `Cc1ccc(NC(=O)N2CCOc3ccc(-c4cccc(C(F)(F)F)c4)nc32)c(C)n1` [Compound 552], the Emax is over 200% and the EC1.5 result is listed as “B (EC1.5 1-25 μM)”.

As for `Cc1cc(C)c(NC(=O)N2CCOc3ccc(-c4cccc(C(F)(F)F)c4)nc32)cn1` [Compound 553], the Emax was at most 200% and the EC1.5 entry is listed as “B (EC1.5 1-25 μM)”.

`Cc1ccc(NC(=O)N2CCOc3ccc(-c4cccc(C(F)(F)F)c4)nc32)cn1` [Compound 554]: the Emax was over 200% and the EC1.5 entry is “A (EC1.5<1.0 μM)”.

On to `Cc1ncccc1NC(=O)N1CCOc2ccc(-c3cccc(C(F)(F)F)c3)nc21` [Compound 555], for which the Emax was at most 200% and the EC1.5 result is listed as “B (EC1.5 1-25 μM)”.

For the molecule `O=C(Nc1ccncc1)N1CCCOc2ccc(-c3cccc(C(F)(F)F)c3)nc21` [Compound 558, N-(pyridin-4-yl)-7-(3-(trifluoromethyl)phenyl)-3,4-dihydropyrido[3,2-b][1,4]oxazepine-5(2H)-carboxamide], the Emax was over 200% and the EC1.5 entry is on record as “B (EC1.5 1-25 μM)”.

`CC1(C)CN(C(=O)Nc2ccncc2)c2nc(-c3cccc(F)c3)ccc2O1` [Compound 561]: the Emax is over 200% and the EC1.5 result is given as “B (EC1.5 1-25 μM)”.

`O=C(Oc1cccnc1)N1CCOc2ccc(-c3cccc(C(F)(F)F)c3)nc21` [Compound 562]: the Emax was at most 200% and the EC1.5 result is recorded as “C (EC1.5>25 μM)”.

Take `CN1C(=O)CN(C(=O)Nc2cccc(N3CCOCC3)n2)c2nc(-c3cccc(C(F)(F)F)c3)ccc21` [Compound 563]: the Emax was over 200% and the EC1.5 result is “A (EC1.5<1.0 μM)”.

As to `Cc1cnccc1NC(=O)N1CCOc2ccc(-c3cccc(C(F)(F)F)c3)nc21` [Compound 564], the Emax was at most 200% and the EC1.5 entry is “B (EC1.5 1-25 μM)”.

Take `O=C(Nc1cc(C(F)(F)F)ccn1)N1CCOc2ccc(-c3cccc(C(F)(F)F)c3)nc21` [Compound 565]: the Emax was at most 200% and the EC1.5 entry is “B (EC1.5 1-25 μM)”.

As for `O=C(Nc1ncc(F)cc1F)N1CCOc2ccc(-c3cccc(C(F)(F)F)c3)nc21` [Compound 567], the Emax was over 200% and the EC1.5 result is “B (EC1.5 1-25 μM)”.

As to `O=C(Nc1ncccc1F)N1CCOc2ccc(-c3cccc(C(F)(F)F)c3)nc21` [Compound 568], the Emax was over 200% and the EC1.5 entry was “B (EC1.5 1-25 μM)”.

Take `Cc1cccnc1NC(=O)N1CCOc2ccc(-c3cccc(C(F)(F)F)c3)nc21` [Compound 569]: the Emax is at most 200% and the EC1.5 result is reported as “C (EC1.5>25 μM)”.

As for `Cc1cc(NC(=O)N2CCOc3ccc(-c4cnn(C)c4C)nc32)cc(C)n1` [Compound 572], the Emax was over 200% and the EC1.5 result is given as “B (EC1.5 1-25 μM)”.

For `Cc1cc(NC(=O)N2CCOc3ccc(-c4c(C)noc4C)nc32)cc(C)n1` [Compound 573], the Emax was over 200% and the EC1.5 entry is “B (EC1.5 1-25 μM)”.

As to `Cc1cc(NC(=O)N2CCOc3ccc(-c4ccnn4C)nc32)cc(C)n1` [Compound 575], the Emax was over 200% and the EC1.5 result is reported as “B (EC1.5 1-25 μM)”.

In the case of `Cc1cncc(NC(=O)N2CCCOc3ccc(-c4cccc(C(F)(F)F)c4)nc32)c1` [Compound 576], the Emax is over 200% and the EC1.5 result was “B (EC1.5 1-25 μM)”.

With `Cc1cc(NC(=O)N2CCCOc3ccc(-c4cccc(C(F)(F)F)c4)nc32)ccn1` [Compound 577], the Emax is over 200% and the EC1.5 result is “B (EC1.5 1-25 μM)”.

On to `O=C(Nc1ccnc(N2CCC2)c1)N1CCCOc2ccc(-c3cccc(C(F)(F)F)c3)nc21` [Compound 579], for which the Emax was over 200% and the EC1.5 result is reported as “A (EC1.5<1.0 μM)”.

With `O=C(Nc1ccncn1)N1CCCOc2ccc(-c3cccc(F)c3)nc21` [Compound 580], the Emax was over 200% and the EC1.5 result is listed as “B (EC1.5 1-25 μM)”.

For the molecule `Cc1cncc(NC(=O)N2CCCOc3ccc(-c4cccc(F)c4)nc32)c1` [Compound 581], the Emax was over 200% and the EC1.5 entry is reported as “B (EC1.5 1-25 μM)”.

With `Cc1cc(NC(=O)N2CCCOc3ccc(-c4cccc(F)c4)nc32)ccn1` [Compound 582], the Emax is over 200% and the EC1.5 result was “B (EC1.5 1-25 μM)”.

Take `Cc1csc(NC(=O)N2CCCOc3ccc(-c4cccc(F)c4)nc32)n1` [Compound 583]: the Emax is over 200% and the EC1.5 result is recorded as “B (EC1.5 1-25 μM)”.

Regarding `O=C(Nc1ccnc(N2CCC2)c1)N1CCCOc2ccc(-c3cccc(F)c3)nc21` [Compound 584], the Emax was over 200% and the EC1.5 entry is “B (EC1.5 1-25 μM)”.

For the molecule `CC1(C)CN(C(=O)Nc2cncc(F)c2)c2nc(-c3cccc(Cl)c3)ccc2O1` [Compound 601], the Emax was over 200% and the EC1.5 entry is “A (EC1.5<1.0 μM)”.

In the case of `Cc1cncc(NC(=O)N2CCCOc3ccc(-c4cccc(N5CCCC5)c4)nc32)c1` [Compound 610], the Emax is over 200% and the EC1.5 result is listed as “B (EC1.5 1-25 μM)”.

`CC1(C)CN(C(=O)Nc2cncc(F)c2)c2nc(-c3cccc(F)c3)ccc2O1` [Compound 621]: the Emax was over 200% and the EC1.5 entry was “B (EC1.5 1-25 μM)”.

Turning to `O=C(Nc1ccncn1)N1CCCOc2ccc(-c3cccc(Cl)c3)nc21` [Compound 625], the Emax was over 200% and the EC1.5 result is recorded as “A (EC1.5<1.0 μM)”.

For the molecule `O=C(Nc1ccncn1)N1CCCOc2ccc(-c3cccc(N4CCCC4)c3)nc21` [Compound 627], the Emax was over 200% and the EC1.5 result is “B (EC1.5 1-25 μM)”.

In the case of `Cc1csc(NC(=O)N2CCCOc3ccc(-c4cccc(N5CCCC5)c4)nc32)n1` [Compound 628], the Emax was at most 200% and the EC1.5 result is given as “B (EC1.5 1-25 μM)”.

As to `Cc1cncc(NC(=O)N2CC(C)(C)Oc3ccc(-c4cccc(CN5CCCC5)c4)nc32)c1` [Compound 629, 2,2-dimethyl-N-(5-methylpyridin-3-yl)-6-(3-(pyrrolidin-1-ylmethyl)phenyl)-2H-pyrido[3,2-b][1,4]oxazine-4(3H)-carboxamide], the Emax is over 200% and the EC1.5 entry is on record as “B (EC1.5 1-25 μM)”.

For `CC1(C)CN(C(=O)Nc2cccnc2)c2nc(-c3cccc(CN4CCCC4)c3)ccc2O1` [Compound 630], the Emax is over 200% and the EC1.5 entry is “B (EC1.5 1-25 μM)”.

`Cc1cc(NC(=O)N2CCOc3ccc(-c4cc(C)nn4C)nc32)cc(C)n1` [Compound 632]: the Emax was over 200% and the EC1.5 entry was “B (EC1.5 1-25 μM)”.

Turning to `O=C(NC1(c2ccccn2)CC1)N1CCOc2ccc(-c3cccc(C(F)(F)F)c3)nc21` [Compound 633, N-(1-(pyridin-2-yl)cyclopropyl)-6-(3-(trifluoromethyl)phenyl)-2H-pyrido[3,2-b][1,4]oxazine-4(3H)-carboxamide], the Emax was at most 200% and the EC1.5 entry is “C (EC1.5>25 μM)”.
